# Source: patent publication US20140363835A1, “COMPATIBLE SOLUTE ECTOINE AS WELL AS DERIVATIVES THEREOF FOR ENZYME STABILIZATION” (Roche Diagnostics Operations, Inc., priority 2012, published 2014)
# Entries after “also recorded” stand apart in the source; their conditions may differ.
# What was measured:
# glucose oxidase = glucose oxidase (Aspergillus niger, UniProt P13006); conditions: test elements for electrochemically determining glucose; WO 2007/097653, Loose (2006); cited from earlier work
# Sequence of glucose oxidase (P13006 17-605, species assumed): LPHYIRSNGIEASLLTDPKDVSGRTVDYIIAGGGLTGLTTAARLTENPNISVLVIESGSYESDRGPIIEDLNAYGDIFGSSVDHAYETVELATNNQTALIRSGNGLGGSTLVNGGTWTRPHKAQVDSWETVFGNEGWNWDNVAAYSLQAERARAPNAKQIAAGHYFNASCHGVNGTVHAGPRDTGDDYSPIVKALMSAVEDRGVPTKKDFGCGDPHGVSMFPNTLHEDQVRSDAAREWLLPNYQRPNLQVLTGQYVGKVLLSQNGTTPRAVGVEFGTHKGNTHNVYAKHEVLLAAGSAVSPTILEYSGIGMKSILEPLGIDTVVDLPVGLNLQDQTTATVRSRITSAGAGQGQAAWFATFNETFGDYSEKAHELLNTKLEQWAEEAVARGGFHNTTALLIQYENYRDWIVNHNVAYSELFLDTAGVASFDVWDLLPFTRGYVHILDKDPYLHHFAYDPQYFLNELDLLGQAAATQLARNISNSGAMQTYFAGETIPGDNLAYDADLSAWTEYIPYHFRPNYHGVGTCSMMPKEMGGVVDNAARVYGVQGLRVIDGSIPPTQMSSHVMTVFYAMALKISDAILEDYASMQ
# [1] = target: Gluc-DOR (a PQQ-dependent GDH) (Acinetobacter calcoaceticus, UniProt P13650); assay: Enzymatic activity in test elements including Gluc-DOR; type: biochemical; conditions: dry test element; after 3 weeks at 45° C.
# Sequence of Gluc-DOR (a PQQ-dependent GDH) (P13650 25-478): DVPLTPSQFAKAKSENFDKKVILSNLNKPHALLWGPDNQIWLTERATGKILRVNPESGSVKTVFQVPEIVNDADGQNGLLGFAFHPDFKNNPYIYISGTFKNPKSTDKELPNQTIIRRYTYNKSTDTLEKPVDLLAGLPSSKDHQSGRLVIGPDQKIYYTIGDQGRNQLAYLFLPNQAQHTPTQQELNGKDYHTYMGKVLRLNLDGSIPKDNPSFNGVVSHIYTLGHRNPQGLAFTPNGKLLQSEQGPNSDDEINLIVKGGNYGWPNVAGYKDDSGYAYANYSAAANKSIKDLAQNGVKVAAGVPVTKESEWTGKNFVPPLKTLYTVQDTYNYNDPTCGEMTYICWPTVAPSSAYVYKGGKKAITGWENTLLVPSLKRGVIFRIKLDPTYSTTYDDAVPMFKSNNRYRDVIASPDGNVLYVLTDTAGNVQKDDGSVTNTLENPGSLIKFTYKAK
# Experimental: (§1) A test element with Gluc-DOR and a mutant thereof (Gluc-DOR 31) was generated as described above in Example 1. The test element was analyzed as described above in Example 2. The determination of the enzymatic activity was carried out using nitrosoaniline as described in EP Patent No. 0 620 283.
# Gluc-DOR 31 mutant = assay: Enzymatic activity in test elements including Gluc-DOR 31 mutant; type: biochemical; conditions: dry test element; after 3 weeks at 45° C.
# Experimental: as §1
# [2] = tested on: glucose dehydrogenase and diaphorase; assay: Enzymatic activity in test elements with different buffers; type: biochemical, B. subtilis; conditions: 2 g ectoine per 100 g first coating film; phosphate-buffer pH 6.8 or HEPES pH 7.1; 45 days, 45° C. to 4° C.
# Source text: Test elements were stored and treated essentially as described in Example 3. Different buffers, namely a phosphate-buffer pH 6.8, without stabilizer, a phosphate-buffer pH 6.8, 2 g ectoine per 100 g first coating film, a HEPES buffer pH 7.1, without stabilizer, and a HEPES buffer pH 7.1, 2 g ectoine per 100 g first coating film, were used in the coating compositions as indicated in FIG. 4.
# [3] = tested on: diaphorase from B. subtilis; assay: Enzymatic activity in eluted test elements after dry storage (diaphorase); type: biochemical; conditions: test elements stored dry 6 weeks at 45° C.
# Experimental: (§2) Four different reaction films for determining glucose levels were generated and coated on a foil essentially as described in EP Patent No. 0 821 234. The formulation of the first coat/film layer composition is shown below in Table 1.
# (§3) The pH was adjusted to 6.8, and the composition was coated as a first film (about 120 μm) on a polycarbonate foil (125 μm). The coated composition was subsequently dried at 50° C.
# (§4) The pH was adjusted to 6.8, and the composition was coated as a second film (about 25 μm) onto the first film coated on the foil. The coated composition was subsequently dried at 50° C. Test strips for glucose determination were generated as described in EP Patent No. 0 821 234.
# (§5) Test elements were stored in plastic vials in the presence of a drying agent for 6 weeks at 45° C. In a subsequent step, the test field of a test element was eluted by ultra-sonication using elution buffer. Enzymatic activity was determined in the supernatant.
# [4] = tested on: Glucose dehydrogenase Mut. 2; assay: Enzymatic activity of glucose dehydrogenase mutant 2 in solution after storage; type: biochemical; conditions: for stabilizing effect in solution: 1-4% (w/v) stabilizer in solution, storage at 4, 35 or 45° C.; for Enzymatic Activity: in solution
# Experimental: Aliquots of a solution including a glucose dehydrogenase mutant 2 as disclosed in WO Patent Application Publication No. 2011/020856 was combined with different amounts of ectoine or hydroxyectoine as indicated below in Table 4.
# The aliquots were stored under different storage conditions (8 days, 4° C.; 8 days 35° C., 4 days 4° C. followed by 4 days 45° C.), and the enzymatic activity was determined after the storage.
# GDH from B. subtilis = GDH from B. subtilis (Bacillus subtilis, UniProt P12310); assay: Enzymatic activity in eluted test elements after dry storage (GDH); type: biochemical; conditions: concentrations larger than 0.3 g/100 g coating composition; test elements stored dry 6 weeks at 45° C.
# Sequence of GDH from B. subtilis (P12310 whole entry): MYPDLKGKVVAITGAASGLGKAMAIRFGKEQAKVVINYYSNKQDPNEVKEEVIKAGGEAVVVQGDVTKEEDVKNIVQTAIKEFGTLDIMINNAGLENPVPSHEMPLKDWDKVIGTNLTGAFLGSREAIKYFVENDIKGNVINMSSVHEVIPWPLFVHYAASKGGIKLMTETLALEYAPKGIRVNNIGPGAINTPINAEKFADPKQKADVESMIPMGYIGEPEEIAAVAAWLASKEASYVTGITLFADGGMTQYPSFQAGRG
# Experimental: as §2, §3, §4, §5
# [5] = tested on: glucose dehydrogenase and diaphorase; assay: Blood glucose measurement with stored test elements as indicator for enzymatic activity; type: biochemical, B. subtilis; conditions: 1 g/100 g composition; stored 63 days at 4, 24, 35 and 45° C.; normalized to 4° C.
# Experimental: Test elements were stored in plastic vials in the presence of a drying agent for 63 days at 4° C. (KS), 24° C. (RT), 35° C. (DT) and 45° C. (HT). Test elements were used to determine blood glucose levels in a plurality of venous blood samples. The samples were measured with a reference method (Hitachi) in parallel. Results were normalized with respect to the KS stored test elements.
# lactate dehydrogenase = conditions: in solution; Andersson et al. (2000); cited from earlier work
# [6] = stabilizer about 1%, 4 days at 4° C., 4 days at 45° C.
# [7] = stabilizer about 1%, 8 days at 4° C.
# [8] = stabilizer about 1%, 8 days at 35° C.
# [9] = stabilizer about 2%, 4 days at 4° C., 4 days at 45° C.
# [10] = stabilizer about 2%, 8 days at 4° C.
# [11] = stabilizer about 2%, 8 days at 35° C.
# [12] = stabilizer about 4%, 4 days at 4° C., 4 days at 45° C.
# [13] = stabilizer about 4%, 8 days at 4° C.
# [14] = stabilizer about 4%, 8 days at 35° C.
SMILES,stabilization of glucose oxidase (glucose oxidase),stabilizing effect on Gluc-DOR [1],stabilizing effect on Gluc-DOR 31 mutant (Gluc-DOR 31 mutant),stabilizing activity with different buffers [2],stabilization of diaphorase [3],stabilizing effect in solution [4],"Enzymatic Activity [4, 6] [kU/g]","Enzymatic Activity [4, 7] [kU/g]","Enzymatic Activity [4, 8] [kU/g]","Enzymatic Activity [4, 9] [kU/g]","Enzymatic Activity [4, 10] [kU/g]","Enzymatic Activity [4, 11] [kU/g]","Enzymatic Activity [4, 12] [kU/g]","Enzymatic Activity [4, 13] [kU/g]","Enzymatic Activity [4, 14] [kU/g]",stabilizing effect (activity versus test elements without stabilizer) (GDH from B. subtilis),preservation of enzymatic activities (measured glucose level) [5],prevention of protein aggregation (lactate dehydrogenase)
"CC1=NCC[C@@H](C(=O)O)N1 [ectoine, (S)-2-methyl-3,4,5,6-tetrahydropyrimidine-4-carboxylic acid]",Stabilization,stabilizing effect,stabilizing effect,observed independent of the buffer system,stabilized,No stabilizing effect; also recorded: not observed,60,222,144,59,222,149,57,207,137,more than 10%,act as stabilizers,
CC1=NC[C@H](O)[C@@H](C(=O)O)N1 [hydroxyectoine],Stabilization,,,,stabilized,No stabilizing effect,52,208,122,60,221,141,56,207,131,same effect,act as stabilizers,incapable of preventing protein aggregation
